The nature of this data set: Solubility of MGDN in water or aqueous ammonium sulfate solution. Format: physicochemical.

The structures appear in SMILES notation.

As for `CC(C#N)N(CC#N)CC#N` (stereo not drawn) [MGDN, methylglycinenitrile-N,N-diacetonitrile], the “dissolved MGDN in the aqueous solution (emulsion formed)” value (above about 60° C., emulsion of MGDN and its aqueous solution) is listed as “more than 5 % by weight”. The “solubility of MGDN in water” value is reported as “about 0.5 % by weight” (at 10° C., in water or an aqueous ammonium sulfate solution) and “about 5 % by weight” (at around 60° C.).

The values are drawn from patent US20120184769A1, “METHOD FOR ISOLATING […]-N,N-DIACETONITRILE” (BASF SE, priority 2009, published 2012).
